Results: patent US11547697B2, “Heterocyclic compounds and uses thereof” (MILLENNIUM PHARMACEUTICALS, INC., priority 2009, dated 2023)
Read-outs that look alike come from different tables or passages of the source.

How the values were obtained:
Format in all cases: biochemical
p110γ = p110γ (Homo sapiens (Human), UniProt P48736); test: PI 3-Kinase (human) HTRF assay, p110γ
p110α/p85α = p110α/p85α (Homo sapiens (Human), UniProt P42336); test: PI 3-Kinase (human) HTRF assay, p110α/p85α
p110δ/p85α = p110δ/p85α (Homo sapiens (Human), UniProt O00329); test: PI 3-Kinase (human) HTRF assay, p110δ/p85α
p110β/p85α = p110β/p85α (Homo sapiens (Human), UniProt P42338); test: PI 3-Kinase (human) HTRF assay, p110β/p85α
[1] = in vitro, read-out: PI3K γ IC50
[2] = in vitro, read-out: PI3K α IC50
[3] = in vitro, read-out: PI3K δ IC50
[4] = in vitro, read-out: PI3K β IC50

Sequence of p110α/p85α (P42336 whole entry): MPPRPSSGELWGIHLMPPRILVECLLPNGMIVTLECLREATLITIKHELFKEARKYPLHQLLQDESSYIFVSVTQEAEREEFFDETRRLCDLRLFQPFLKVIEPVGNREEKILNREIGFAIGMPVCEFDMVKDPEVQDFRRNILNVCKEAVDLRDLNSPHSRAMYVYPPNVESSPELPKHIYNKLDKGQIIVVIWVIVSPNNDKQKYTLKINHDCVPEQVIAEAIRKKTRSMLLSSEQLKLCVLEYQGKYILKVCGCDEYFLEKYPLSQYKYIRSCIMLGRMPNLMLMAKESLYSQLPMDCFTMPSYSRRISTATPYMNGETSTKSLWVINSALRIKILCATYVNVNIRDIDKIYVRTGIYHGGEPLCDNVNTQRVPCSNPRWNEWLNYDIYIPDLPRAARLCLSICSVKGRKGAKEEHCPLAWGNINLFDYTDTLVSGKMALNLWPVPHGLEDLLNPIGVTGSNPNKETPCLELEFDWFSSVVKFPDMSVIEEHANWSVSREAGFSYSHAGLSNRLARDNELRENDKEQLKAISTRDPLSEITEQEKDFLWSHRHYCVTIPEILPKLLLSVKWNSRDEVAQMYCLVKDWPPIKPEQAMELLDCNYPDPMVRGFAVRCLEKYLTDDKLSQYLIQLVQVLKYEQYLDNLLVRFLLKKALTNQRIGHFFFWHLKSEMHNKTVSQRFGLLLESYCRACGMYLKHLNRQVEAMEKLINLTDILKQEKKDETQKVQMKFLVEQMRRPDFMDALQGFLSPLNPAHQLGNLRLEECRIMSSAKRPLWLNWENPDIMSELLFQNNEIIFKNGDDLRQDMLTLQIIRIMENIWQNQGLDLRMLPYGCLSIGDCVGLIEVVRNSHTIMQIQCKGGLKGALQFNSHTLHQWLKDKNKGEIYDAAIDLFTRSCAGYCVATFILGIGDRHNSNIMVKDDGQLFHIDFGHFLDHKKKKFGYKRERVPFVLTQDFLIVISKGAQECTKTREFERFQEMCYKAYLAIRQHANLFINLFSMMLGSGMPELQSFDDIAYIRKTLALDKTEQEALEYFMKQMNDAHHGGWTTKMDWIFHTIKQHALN
Sequence of p110α/p85α (P27986 whole entry partner): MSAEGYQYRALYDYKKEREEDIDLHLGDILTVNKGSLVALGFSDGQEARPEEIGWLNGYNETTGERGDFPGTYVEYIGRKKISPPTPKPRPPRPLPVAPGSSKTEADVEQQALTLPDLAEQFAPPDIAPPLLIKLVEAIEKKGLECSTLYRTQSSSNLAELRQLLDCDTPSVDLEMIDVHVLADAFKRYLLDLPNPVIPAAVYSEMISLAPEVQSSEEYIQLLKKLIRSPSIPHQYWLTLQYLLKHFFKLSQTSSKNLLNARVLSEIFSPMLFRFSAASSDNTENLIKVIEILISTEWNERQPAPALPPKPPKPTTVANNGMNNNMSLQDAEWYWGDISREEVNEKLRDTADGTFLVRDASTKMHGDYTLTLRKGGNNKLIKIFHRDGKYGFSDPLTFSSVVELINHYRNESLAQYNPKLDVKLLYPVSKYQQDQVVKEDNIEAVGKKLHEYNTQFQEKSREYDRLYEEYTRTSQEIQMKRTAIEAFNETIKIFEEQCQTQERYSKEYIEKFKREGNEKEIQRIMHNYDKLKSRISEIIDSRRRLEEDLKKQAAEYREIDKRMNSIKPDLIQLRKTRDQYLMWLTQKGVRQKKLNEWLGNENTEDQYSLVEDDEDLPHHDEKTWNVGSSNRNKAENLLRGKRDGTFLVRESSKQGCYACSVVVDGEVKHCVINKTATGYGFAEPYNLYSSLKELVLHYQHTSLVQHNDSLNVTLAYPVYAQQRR
Sequence of p110γ (P48736 whole entry): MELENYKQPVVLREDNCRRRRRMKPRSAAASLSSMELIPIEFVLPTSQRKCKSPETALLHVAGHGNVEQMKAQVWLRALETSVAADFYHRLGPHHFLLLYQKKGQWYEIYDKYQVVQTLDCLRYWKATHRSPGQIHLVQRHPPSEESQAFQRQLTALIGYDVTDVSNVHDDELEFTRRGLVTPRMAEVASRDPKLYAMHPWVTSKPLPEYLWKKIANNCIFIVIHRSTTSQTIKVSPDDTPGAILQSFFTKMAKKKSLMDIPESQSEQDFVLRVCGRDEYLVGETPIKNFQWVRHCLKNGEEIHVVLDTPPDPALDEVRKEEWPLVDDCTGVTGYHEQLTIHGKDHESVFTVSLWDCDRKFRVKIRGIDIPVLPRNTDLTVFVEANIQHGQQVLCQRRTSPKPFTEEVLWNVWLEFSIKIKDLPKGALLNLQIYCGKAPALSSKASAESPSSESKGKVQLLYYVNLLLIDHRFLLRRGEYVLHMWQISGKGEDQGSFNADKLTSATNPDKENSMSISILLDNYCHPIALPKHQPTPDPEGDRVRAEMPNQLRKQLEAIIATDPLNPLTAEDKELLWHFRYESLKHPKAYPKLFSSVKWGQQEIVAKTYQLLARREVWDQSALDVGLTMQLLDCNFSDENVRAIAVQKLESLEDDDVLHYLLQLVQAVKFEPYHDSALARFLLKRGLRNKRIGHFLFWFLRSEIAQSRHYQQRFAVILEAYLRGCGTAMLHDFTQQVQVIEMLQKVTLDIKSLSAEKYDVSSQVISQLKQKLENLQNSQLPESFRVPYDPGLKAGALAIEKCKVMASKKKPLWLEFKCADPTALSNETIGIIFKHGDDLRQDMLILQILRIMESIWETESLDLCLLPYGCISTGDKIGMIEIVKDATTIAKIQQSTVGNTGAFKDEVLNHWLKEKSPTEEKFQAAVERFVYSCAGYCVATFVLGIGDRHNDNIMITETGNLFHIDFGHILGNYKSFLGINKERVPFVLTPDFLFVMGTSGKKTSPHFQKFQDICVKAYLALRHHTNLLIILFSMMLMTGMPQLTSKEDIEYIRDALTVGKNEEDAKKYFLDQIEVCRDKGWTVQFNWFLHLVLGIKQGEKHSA
Sequence of p110δ/p85α (O00329 whole entry): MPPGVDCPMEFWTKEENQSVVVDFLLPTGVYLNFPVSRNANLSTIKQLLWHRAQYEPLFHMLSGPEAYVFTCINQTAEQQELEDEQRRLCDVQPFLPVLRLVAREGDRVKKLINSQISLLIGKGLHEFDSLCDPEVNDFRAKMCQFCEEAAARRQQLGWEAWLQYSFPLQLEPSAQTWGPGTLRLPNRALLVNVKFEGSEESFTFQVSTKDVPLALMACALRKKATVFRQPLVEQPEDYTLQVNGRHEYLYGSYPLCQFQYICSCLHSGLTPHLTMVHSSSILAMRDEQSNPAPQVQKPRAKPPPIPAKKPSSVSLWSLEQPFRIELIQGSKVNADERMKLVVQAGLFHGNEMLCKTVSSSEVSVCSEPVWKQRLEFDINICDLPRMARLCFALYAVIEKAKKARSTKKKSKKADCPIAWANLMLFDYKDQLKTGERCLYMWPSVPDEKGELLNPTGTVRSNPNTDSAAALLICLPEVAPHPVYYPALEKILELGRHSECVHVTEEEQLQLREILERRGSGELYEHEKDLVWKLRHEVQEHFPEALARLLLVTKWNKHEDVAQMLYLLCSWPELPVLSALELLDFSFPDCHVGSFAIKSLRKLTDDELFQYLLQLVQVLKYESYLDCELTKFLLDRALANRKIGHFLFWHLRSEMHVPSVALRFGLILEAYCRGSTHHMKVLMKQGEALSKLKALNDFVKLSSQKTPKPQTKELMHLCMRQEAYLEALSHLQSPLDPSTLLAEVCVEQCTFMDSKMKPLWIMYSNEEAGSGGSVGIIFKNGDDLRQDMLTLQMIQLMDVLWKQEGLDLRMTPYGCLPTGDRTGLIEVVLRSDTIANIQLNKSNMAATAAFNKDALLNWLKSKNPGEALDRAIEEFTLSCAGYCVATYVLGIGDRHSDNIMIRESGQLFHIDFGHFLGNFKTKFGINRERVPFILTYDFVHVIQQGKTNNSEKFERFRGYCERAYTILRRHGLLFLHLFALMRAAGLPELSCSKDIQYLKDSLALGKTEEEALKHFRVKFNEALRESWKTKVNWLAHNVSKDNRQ
Sequence of p110δ/p85α (P27986 whole entry partner): as the sequence (P27986 whole entry partner) above
Sequence of p110β/p85α (P42338 whole entry): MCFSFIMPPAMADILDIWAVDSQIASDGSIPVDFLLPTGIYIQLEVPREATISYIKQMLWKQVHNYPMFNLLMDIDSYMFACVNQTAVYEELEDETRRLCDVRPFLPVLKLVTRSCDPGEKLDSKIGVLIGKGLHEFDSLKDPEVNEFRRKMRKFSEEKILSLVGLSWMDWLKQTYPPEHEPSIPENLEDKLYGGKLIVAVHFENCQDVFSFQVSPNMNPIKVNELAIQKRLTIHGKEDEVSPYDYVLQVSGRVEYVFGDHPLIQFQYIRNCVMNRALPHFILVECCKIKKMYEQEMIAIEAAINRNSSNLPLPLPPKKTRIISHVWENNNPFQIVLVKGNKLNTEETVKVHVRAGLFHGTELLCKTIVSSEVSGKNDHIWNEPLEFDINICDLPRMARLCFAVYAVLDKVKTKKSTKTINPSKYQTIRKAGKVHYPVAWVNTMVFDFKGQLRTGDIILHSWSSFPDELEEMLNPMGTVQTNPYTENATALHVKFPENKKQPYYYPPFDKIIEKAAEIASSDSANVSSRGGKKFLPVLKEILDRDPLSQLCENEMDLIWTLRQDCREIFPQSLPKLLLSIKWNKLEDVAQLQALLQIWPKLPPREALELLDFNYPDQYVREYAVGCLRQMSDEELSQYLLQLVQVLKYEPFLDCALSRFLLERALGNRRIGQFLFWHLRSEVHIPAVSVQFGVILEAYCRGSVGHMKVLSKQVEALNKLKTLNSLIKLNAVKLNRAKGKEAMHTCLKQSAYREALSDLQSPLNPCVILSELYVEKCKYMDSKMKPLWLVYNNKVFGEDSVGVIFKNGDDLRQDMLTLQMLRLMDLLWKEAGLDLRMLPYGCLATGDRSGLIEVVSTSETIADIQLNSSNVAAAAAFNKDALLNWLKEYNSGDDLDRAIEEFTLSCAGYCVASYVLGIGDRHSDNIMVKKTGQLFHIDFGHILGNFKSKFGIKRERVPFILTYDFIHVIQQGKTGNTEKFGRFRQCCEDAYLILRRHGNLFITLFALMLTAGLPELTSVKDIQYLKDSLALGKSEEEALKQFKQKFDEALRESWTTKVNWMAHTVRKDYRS
Sequence of p110β/p85α (P27986 whole entry partner): as the sequence (P27986 whole entry partner) above

SMILES	IC50 (p110γ; [1])	IC50 (p110α/p85α; [2])	IC50 (p110δ/p85α; [3])	IC50 (p110β/p85α; [4])	further results
COc1ncc(-c2ccc3ncc(C(=O)N4CCOCC4)n3c2)cc1NS(C)(=O)=O [compound 416]					IC50 (p110γ; read-out: PI3K γ In Vitro IC50): < 1000 nM; IC50 (p110α/p85α; read-out: PI3K α In Vitro IC50): < 100 nM; IC50 (p110δ/p85α; read-out: PI3K δ In Vitro IC50): < 10000 nM; IC50 (p110β/p85α; read-out: PI3K β In Vitro IC50): < 10000 nM
Nc1nc2cc(-c3ccc4ncc(N5CCn6cccc6C5)nc4c3)ccc2o1 [compound 394]	< 100 nM	< 100 nM	< 1000 nM	< 100 nM	
CC(=O)Nc1nc(C)c(-c2ccc3oc(N)nc3c2)s1 [compound 312]	< 100 nM	< 1000 nM	< 1000 nM	< 10000 nM	
Nc1nc2cc(-c3ccc4ncc(N5CC(n6ccnc6)C5)nc4c3)ccc2o1 [compound 319]	< 1000 nM	< 100 nM	< 10000 nM	< 1000 nM	
CN1CCN(C2CN(c3cnc4ccc(-c5ccc6oc(N)nc6c5)cc4n3)C2)CC1=O [compound 323]	< 1000 nM	< 100 nM	< 10000 nM	< 10000 nM	
Cc1cn(C2CN(c3cnc4ccc(-c5ccc6oc(N)nc6c5)cc4n3)C2)cn1 [compound 339]	< 1000 nM	< 100 nM	< 1000 nM	< 1000 nM	
CCN(CC)CCCNc1cnc2ccc(-c3ccc4oc(N)nc4c3)cc2n1 [compound 220]	< 1000 nM	< 100 nM	< 100 nM	< 1000 nM	
Nc1nc2cc(-c3ccc4ncnc(NC5CCN(C(=O)C6CC6)CC5)c4c3)ccc2o1 [compound 89]					IC50 (p110γ; read-out: PI3K γ IC50): < 100 nM; IC50 (p110α/p85α; read-out: PI3K α IC50): < 100 nM; IC50 (p110δ/p85α; read-out: PI3K δ IC50): < 100 nM; IC50 (p110β/p85α; read-out: PI3K β IC50): < 10000 nM
Nc1nc2cc(-c3ccc4ncc(N5CC(O)C5)nc4c3)ccc2o1 [compound 216]	< 100 nM	< 100 nM	< 10000 nM	< 1000 nM	
Nc1nc2cc(-c3ccc4ncc(-c5cn[nH]c5)n4n3)ccc2o1 [compound 59]					IC50 (p110γ; read-out: PI3K γ IC50): < 100 nM; IC50 (p110α/p85α; read-out: PI3K α IC50): < 100 nM; IC50 (p110δ/p85α; read-out: PI3K δ IC50): < 1000 nM; IC50 (p110β/p85α; read-out: PI3K β IC50): < 100 nM
CC(=O)N1CCC(Nc2cnc3ccc(-c4ccc5oc(N)nc5c4)cc3n2)CC1 [compound 82]					IC50 (p110γ; read-out: PI3K γ IC50): < 100 nM; IC50 (p110α/p85α; read-out: PI3K α IC50): < 100 nM; IC50 (p110δ/p85α; read-out: PI3K δ IC50): < 100 nM; IC50 (p110β/p85α; read-out: PI3K β IC50): < 10000 nM
Nc1nc2cc(-c3ccc4ncc(N5CC(N6CCNC(=O)C6)C5)nc4c3)ccc2o1 [compound 325]	< 100 nM	< 100 nM	< 10000 nM	< 1000 nM	
Nc1nc2ccc(-c3ccc4nnc(-c5ccncc5)n4c3)cc2o1 [compound 230]	< 1000 nM	< 10000 nM	< 10000 nM	< 1000 nM	
CN1CCN(c2ccnc3ccc(-c4ccc5oc(N)nc5c4)cc23)CC1 [compound 21]					IC50 (p110γ; read-out: PI3K γ IC50): < 10000 nM; IC50 (p110α/p85α; read-out: PI3K α IC50): < 1000 nM; IC50 (p110δ/p85α; read-out: PI3K δ IC50): < 10000 nM; IC50 (p110β/p85α; read-out: PI3K β IC50): < 10000 nM
CC(C)N1CCC(n2cnc3ccc(-c4cncc(NS(=O)(=O)c5ccc(F)cc5F)c4)cc3c2=O)CC1 [compound 519]					IC50 (p110γ; read-out: PI3K γ In Vitro IC50): < 1000 nM; IC50 (p110α/p85α; read-out: PI3K α In Vitro IC50): < 1000 nM; IC50 (p110δ/p85α; read-out: PI3K δ In Vitro IC50): < 10000 nM; IC50 (p110β/p85α; read-out: PI3K β In Vitro IC50): < 10000 nM
Cc1cc(-c2ccc3oc(N)nc3c2)cc2c(-c3ccncc3)cnn12 [compound 397]					IC50 (p110γ; read-out: PI3K γ In Vitro IC50): < 100 nM; IC50 (p110α/p85α; read-out: PI3K α In Vitro IC50): < 100 nM; IC50 (p110δ/p85α; read-out: PI3K δ In Vitro IC50): < 1000 nM; IC50 (p110β/p85α; read-out: PI3K β In Vitro IC50): < 1000 nM

The next lines start with results.

IC50 (p110γ; [1])	IC50 (p110α/p85α; [2])	IC50 (p110δ/p85α; [3])	IC50 (p110β/p85α; [4])	SMILES	further results
< 10000 nM	< 100 nM	< 10000 nM	< 10000 nM	CS(=O)(=O)N1CCN(C2CN(c3cnc4ccc(-c5ccc6oc(N)nc6c5)cc4n3)C2)CC1 [compound 328]	
< 100 nM	< 100 nM	< 10000 nM	< 10000 nM	Nc1nc2cc(-c3ccc4ncc(C(=O)N5CCC5)n4c3)ccc2o1 [compound 197]	
< 1000 nM	< 100 nM	< 10000 nM	< 1000 nM	Nc1nc2cc(-c3ccc4ncc(N5CC(N6CCOCC6)C5)nc4c3)cc(F)c2o1 [compound 361]	
< 10000 nM	< 10000 nM	< 10000 nM	< 10000 nM	Cc1cc(-c2ccc3ncc(N4CC(N5CCOCC5)C4)nc3c2)cc2nc(N)oc12 [compound 365]	
< 1000 nM	< 100 nM	< 100 nM	< 1000 nM	Nc1nc2cc(-c3ccc4ncc(NCCCN5CCOCC5)nc4c3)ccc2o1 [compound 222]	
< 100 nM	< 100 nM	< 10000 nM	< 1000 nM	Nc1nc2cc(-c3ccc4ncc(C(=O)N5CCOCC5)n4c3)cc(Cl)c2o1 [compound 359]	
< 100 nM	< 100 nM	< 100 nM	< 100 nM	Nc1nc2cc(-c3ccc4ncc(N5CCN(C(=O)[C@H]6CCCN6)CC5)nc4c3)ccc2o1 [compound 225]	
< 10000 nM	< 10000 nM	< 10000 nM	< 10000 nM	Nc1nc2cc(-c3ccc4ncn(CCN5CCCC5)c(=O)c4c3)ccc2o1 [compound 255]	
< 1000 nM	< 100 nM	< 1000 nM	< 1000 nM	CN(C)CC(=O)N1CCN(c2cnc3ccc(-c4ccc5oc(N)nc5c4)cc3n2)CC1 [compound 217]	
